The values below come from patent US20090317372A1, “SMALL MOLECULES FOR THE REDUCTION OF HIGH BLOOD GLUCOSE LEVEL” (priority 2008, published 2009).

What all share (assay type): in vivo
In assay [1] the test system is C57/BL/6 mice. Briefly: Glucose tolerance test with normal mice (CC1, CC3, CC19). The settings on record: for Reduction of blood glucose level: 30th min of test period. How it is done:
C57/BL/6 female mice weighing 22-23-g and fasted for 14 hours before intraperitoneal (i.p.) administration of glucose (3-g/kg) were used. None of the animals received any food during the experiment other than glucose. The animals received i.p. injections of 4.5-mg/kg of CCcompound1, CCcompound3, or CCcompound19 either 1 hour or 24 hours prior to glucose administration as indicated in TABLE 3. Blood samples were taken from the eyes (canthus), and glucose concentrations in whole blood samples were immediately measured with the Fast Glucose C test. Each group included six animals. The data, shown in TABLE 3, are the mean±std. dev. of 6 determinations, i.e. one determination with each of the six animals. In this and all subsequent experiments the values at 0 min reflect glucose concentration in blood samples collected 1-5 minutes prior to the administration of glucose.

In assay [2] the test system is Wistar rats. Briefly: Glucose tolerance test in starved rats. How it is done: Male Wistar rats weighing 240-270-g were divided into 3 groups, each group consisting of 6 or 7 animals. To ensure standard conditions animals were starved for 14 hours before the start of the experiment. CCcompound1 and CCcompound3 were injected (i.p.) 30 min prior to injecting 3-g/kg of glucose (i.p.). Blood sugar values of the experimental animals were measured with the Fast Glucose C-test; blood samples were taken from the tail. The data are the mean±std. dev. of 6-7 determinations, i.e. one determination with each of the 6-7 animals in the respective groups.

In assay [3] the test system is ob/ob mice. Briefly: Blood glucose level of normally fed ob/ob obese diabetic mice, daily treatment. The settings on record: second experiment. An excerpt:
Adult female leptin-deficient ob/ob obese diabetic inbred specified pathogen free (SPF) hygienic category mice from Charles River VRF1 were used for these experiments. The mice weighed 32-36-g at arrival. The ob/ob obese mouse is an extensively used animal model for the study of non-insulin-dependent-diabetes mellitus (NIDDM). The mutation was propagated in the C57BL/6J (BL/6) inbred strain. Homozygous obese (ob/ob) animals developed hyperglycemia due to insulin resistance, hyperinsulinemia (to compensate for reduced insulin action), and obesity. In these animals gluconeogenesis is enhanced despite their hyperinsulinemic state. The animals were kept in macrolon cages at 22-24° C. and 50-60% humidity, with lighting regimen of 12/12 h light dark. They had free access to tap water and were fed a sterilized standard diet (Charles River VRF1, autoclavable). The animals were cared for according to the “Guiding Principles for the Care and Use for Animals” based upon the Helsinki declaration. The ob/ob mice gained weight rapidly and developed a marked obesity by 5-6 weeks of age. […] When arrived they were 5 weeks old (when the experiment was performed with CCcompound1) or 4.5 weeks old (when the experiment was performed with CCcompound3 and CCcompound19). The treatments started 8 days later in the experiment performed with CCcompound1 and 10 days later in the experiment performed with CCcompound3 and CCcompound19. Experimental groups selected from ob/ob mice were injected subcutaneously (s.c.) at regular intervals once daily for 14 days with CCcompound1 or an analog (CCcompound3 or CCcompound19) each at the dose of 4.5-mg per kg. Control groups were also selected from ob/ob mice that remained untreated during the entire length of the experiment. In the first experiment, for which the data is presented in TABLE 11, blood samples were taken either 45 min or 6 hours after treatments with CCcompound1. In the second experiment, for which the data is presented in TABLE 12, blood samples were taken 45 min after treatments with the analogs of CCcompound1. Blood glucose was determined with the Fast Glucose C test. Both the untreated and CC compound-treated groups included 5 animals. The data are the mean±std. dev.

The test system of assay [4] is C57/BL/6 mice. Briefly: Glucose tolerance test with normal mice, CCcompound1 and sub-optimal insulin. The settings on record: CCcompound1 4.5-mg/kg i.p. 60 min and/or insulin 0.02 IU 15 min prior to glucose. How it is done: In this experiment, a sub-optimal dose of insulin (0.02 international unit-IU) was used to probe if CCcompound1 indeed can enhance the effect of insulin on blood glucose. Again C57/BL/6 female mice weighing 22-23-g and fasted for 14 hours prior to i.p. glucose administration (3-g/kg), were used. None of the animals received any food during the experiment other than glucose. The animals received i.p. injections of 4.5-mg/kg of CCcompound1 and/or 0.02 Unit insulin 60 min and 15 min prior to glucose administration, respectively. Blood samples were taken and glucose concentrations measured as indicated earlier. Each group included six animals. The data are the mean±std. dev. of 6 determinations, i.e. one determination with each of the six animals.

The subject of assay [5] is BDF1 (C57/BL/6 female×DBA/2 male) mice. The assay is described as follows: Glucose tolerance test with BDF1 mice, CCcompound1 and sub-optimal insulin. As to conditions: CCcompound1 4.5-mg/kg i.p. −15 min and/or insulin 0.02 IU −10 min. How it is done:
In this experiment again, a sub-optimal dose of insulin was used to probe if CCcompound1 can enhance the effect of insulin on blood glucose. This time first generation hybrid BDF1 (C57/BL/6 female×DBA/2 male) adult (10-12 weeks old) male mice weighing 28-30-g and fasted for 14 hours before i.p. glucose administration (3-g/kg) were used. These mice were […] than mice in the previous experiment described under Example 5. None of the animals received any food during the experiment other than glucose. The animals received i.p. injections of 4.5-mg/kg of CCcompound1 and 0.02 IU of insulin 15 min and 10 min prior to glucose administration. Blood samples were taken and glucose concentrations in whole blood samples determined as described earlier. Each group included six animals. The data are the mean±std. dev. of 6 determinations, i.e. one determination with each of the six animals.

The subject of assay [6] is C57/BL/6 mice. The assay is described as follows: Glucose tolerance test with normal mice, PALP and CCcompound1 combined. The settings on record: PALP 0.4 mg/mouse i.p. −24 h. How it is done: Female C57/BL/6 mice weighing 24-26-g and fasted for 12 hours before i.p. glucose administration (3 g/kg) were used. None of the animals received any food during the experiment other than glucose. One group of animals was untreated while animals in other groups received subcutaneous (s.c.) injections of 2.0 or 4.5-mg/kg of CCcompound1 either 30 min or 60 min prior to glucose administration as indicated in TABLE 5. Two groups of animals received i.p. injections of 0.4-mg per mouse (˜16-mg per kg) of highly purified PALP 24 hours prior to glucose administration. Purification of PALP was described in detail earlier [Z. Kiss, U.S. Pat. No. 7,048,914, “Placental Alkaline Phosphatase to Control Diabetes]. Animals in one of the PALP treated group also received s.c. injections of 4.5-mg/kg of CCcompound1 30 min prior to glucose administration as indicated in TABLE 5. Blood samples were taken and glucose concentrations were immediately measured as described earlier. Each group included five animals. The data are the mean±std. dev. of 5 determinations, i.e. one determination with each of the five animals. “-min” and “-h” indicates the length of period in minutes and hours, respectively, elapsed between the administration of test agents (first) and glucose (second).

The mark [7] stands for this setting: 4.5-mg/kg i.p. 1 h prior to glucose 3-g/kg i.p., 0 min.
Setting [8] is: 4.5-mg/kg i.p. 1 h prior to glucose.
The mark [9] stands for this setting: 4.5-mg/kg i.p. 1 h prior to glucose, 30 min.
Where [10] appears, read: 4.5-mg/kg i.p. 1 h prior to glucose, 60 min.
Setting [11] is: 4.5-mg/kg i.p. 1 h prior to glucose, 120 min.
The mark [12] stands for this setting: 4.5-mg/kg i.p. 1 h prior to glucose, 180 min.
Setting [13] is: 4.5-mg/kg s.c. once daily, 45 min after treatment, day 1.
Setting [14] is: 4.5-mg/kg s.c. once daily, day 0.

Regarding `CC[N+](C)(CC)CCOCc1ccc2sc3ccccc3c(=O)c2c1` [CCcompound 3], the Blood glucose was determined as 1.7 ± 0.5 mM in assay [1] (setting [7]); 6.6 ± 0.3 mM in assay [1] (setting [9]); 5.0 ± 0.2 mM in assay [1] (setting [10]); 3.6 ± 0.5 mM in assay [1] (setting [11]); 2.7 ± 0.4 mM in assay [1] (setting [12]); 4.73 ± 0.24 mM in assay [2] (rats starved 14 h, i.p. 30 min prior to glucose 3-g/kg i.p., 0 min). Also, the Blood glucose was 9.36 ± 0.43 mM in assay [2] (rats, i.p. 30 min prior to glucose, 30 min); 6.66 ± 0.33 mM in assay [2] (rats, i.p. 30 min prior to glucose, 60 min); 5.71 ± 0.38 mM in assay [2] (rats, i.p. 30 min prior to glucose, 90 min); 5.43 ± 0.60 mM in assay [2] (rats, i.p. 30 min prior to glucose, 120 min); 7.6 ± 0.7 mM in assay [3] (setting [13]); 9.1 ± 0.6 mM in assay [3] (setting [14]). The Blood glucose in assay [3] (45 min after treatment, day 5) is reported as 8.6 ± 0.9 mM; in assay [3] (45 min after treatment, day 10), 11.0 ± 0.6 mM; in assay [3] (45 min after treatment, day 15), 12.6 ± 0.5 mM. Also, the “Reduction of blood glucose level” value in assay [1] (setting [8]) stood at 19%.
Take `C[N+](C)(C)CCC=C1c2ccccc2Sc2ccccc21.[I-]` [CCcompound 19, N,N,N-trimethyl-3-(9H-thioxanthen-9-ylidene)-propane-1-aminium iodide]: the Blood glucose in assay [1] (setting [7]) worked out at 2.1 ± 0.5 mM; in assay [1] (setting [9]), 5.7 ± 0.4 mM; in assay [1] (setting [10]), 4.6 ± 0.6 mM; in assay [1] (setting [11]) it was 3.1 ± 0.2 mM; in assay [1] (setting [12]) it was 2.2 ± 0.4 mM; in assay [3] (setting [13]), 6.2 ± 0.9 mM. The Blood glucose in assay [3] (setting [14]) is recorded as 9.3 ± 0.7 mM; in assay [3] (45 min after treatment, day 5) it was 7.7 ± 0.5 mM; in assay [3] (45 min after treatment, day 10) it was 9.3 ± 0.9 mM; in assay [3] (45 min after treatment, day 15), 10.4 ± 1.0 mM. For the same molecule, the “Reduction of blood glucose level” value in assay [1] (setting [8]) is reported as 23%.
“Insulin: insulin, sub-optimal dose 0.02 IU [reference compound]”: the Blood glucose in assay [4] (0 min) is listed as 2.1 ± 0.6 mM; in assay [4] (30 min) it was 7.2 ± 0.4 mM; in assay [4] (60 min), 5.6 ± 0.5 mM; in assay [4] (120 min), 3.8 ± 0.4 mM; in assay [5] (0 min) it was 3.1 ± 0.4 mM; in assay [5] (30 min) it was 6.4 ± 0.5 mM. Besides, the Blood glucose in assay [5] (60 min) was 5.6 ± 0.3 mM.

B1: PALP: highly purified placental alkaline phosphatase (protein, UniProt P05187 23-506, looked up)
Alkaline phosphatase, …: IIPVEEENPDFWNREAAEALGAAKKLQPAQTAAKNLIIFLGDGMGVSTVTAARILKGQKKDKLGPEIPLAMDRFPYVALSKTYNVDKHVPDSGATATAYLCGVKGNFQTIGLSAAARFNQCNTTRGNEVISVMNRAKKAGKSVGVVTTTRVQHASPAGTYAHTVNRNWYSDADVPASARQEGCQDIATQLISNMDIDVILGGGRKYMFRMGTPDPEYPDDYSQGGTRLDGKNLVQEWLAKRQGARYVWNRTELMQASLDPSVTHLMGLFEPGDMKYEIHRDSTLDPSLMEMTEAALRLLSRNPRGFFLFVEGGRIDHGHHESRAYRALTETIMFDDAIERAGQLTSEEDTLSLVTADHSHVFSFGGYPLRGSSIFGLAPGKARDRKAYTVLLYGNGPGYVLKDGARPDVTESESGSPEYRQQSAVPLDEETHAGEDVAVFARGPQAHLVHGVQEQTFIAHVMAFAACLEPYTACDLAPPAGTTD
For the molecule B1, the Blood glucose in assay [6] (0 min) is on record as 3.7 ± 0.5 mM; in assay [6] (30 min) it was 6.8 ± 0.3 mM; in assay [6] (60 min), 5.3 ± 0.4 mM; in assay [6] (120 min) it was 4.3 ± 0.5 mM.
